According to US20240156785A1, “COMPOSITION FOR IMPROVING BLOOD CHOLESTEROL LEVEL” (SUNTORY HOLDINGS LIMITED, priority 2021, published 2024):

Tests used:
[1] = system: HDL cholesterol and LDL cholesterol in the blood; assay: Blood cholesterol evaluation study on human (placebo-controlled, randomized, double-blind, parallel-group); type: in vivo; conditions: human adults, one capsule (20 mg L-ergothioneine) per day orally for four weeks, week 4 vs pre-testing, compared with control food group
Protocol: In order to evaluate the influence of supplements containing ergothioneine on human blood cholesterol levels, a placebo-controlled, randomized, double-blind, parallel-group study was conducted on subjects including male and female adults (46 subjects in a test food group; 46 subjects in a control food group; 92 subjects in total). In this study, one capsule containing 20 mg ergothioneine (test food) or one capsule not containing ergothioneine (control food) was fed per day for four weeks. The blood cholesterol levels of the subjects were measured for pre-testing before starting the study (before starting ingestion of the test food or control food). After ingestion of the test food or control food for four weeks, the blood cholesterol levels of the subjects were measured again (testing on week 4). The cholesterol measured includes HDL cholesterol and LDL cholesterol. […] The ratio of LDL cholesterol level to HDL cholesterol level (LDL/HDL ratio) in the blood was determined for each subject from the measurements (mg/dL) of HDL cholesterol and LDL cholesterol. […] For each group, the amount of changes in LDL/HDL ratio (Δ in LDL/HDL ratio) from the time of pre-testing was determined by subtracting the LDL/HDL ratio at the time of pre-testing from the LDL/HDL ratio at the time of testing on week 4 ((LDL/HDL ratio at the time of testing on week 4)—(LDL/HDL ratio at the time of pre-testing)). […]

[2] = system: triglyceride (neutral fat) level in plasma; conditions: mice, oral administration, compared with mice not orally administered with ergothioneine; cited from earlier work

For C[N+](C)(C)[C@@H](Cc1c[nH]c(=S)[nH]1)C(=O)[O-] [L-ergothioneine], the “changes in HDL cholesterol level (Δ in HDL cholesterol) in the blood” value [1] is listed as “increased”, the “changes in LDL/HDL ratio (Δ in LDL/HDL ratio) in the blood” value [1] is listed as “reduced” and the “triglyceride (neutral fat) level in plasma” value [2] is listed as “lower”.
